Literature values, collected in patent US10092644B2, “Use of fluorinated cyclic dinucleotides as oral vaccine adjuvants” (BROCK UNIVERSITY, priority 2013, dated 2018).

Test system: S. penuemoniae pneumolysin toxid (PdB) or pneumococal surface protection (PspA)
Details: mice, interperitoneally, PdB or PspA adjuvanted with c-di-GMP (Chen et al. 2010; Ogunniyi et al. 2008); cited from earlier work

For `Nc1nc2c(ncn2C2OC3COP(=O)(O)OC4C(COP(=O)(O)OC3C2O)OC(n2cnc3c(=O)[nH]c(N)nc32)C4O)c(=O)[nH]1` (stereo not shown) [c-di-GMP, 3′,5′-cyclic diguanylic acid], the antigen-specific antibody response is given as “enhanced”.
